# Data reported in ChEMBL document CHEMBL5696443 (Clin Cancer Res, 2016).
# Activity calls are given as the source filed them. The rule behind the calls is not given here.
# Legend:
# [1] = biological target: Dual specificity tyrosine-phosphorylation-regulated kinase 1A (Homo sapiens) (UniProt Q13627); assay: Inhibition of human DYRK1A at 1 uM using RRRFRPASPLRGPPK as substrate in presence of [gamma33P]-ATP by HotSpot assay relative to control
# [2] = biological target: CDK3/Cyclin E (Homo sapiens) (UniProt P24864+Q00526); assay: Inhibition of human CDK3/CyclinE at 1 uM using RB protein as substrate in presence of [gamma33P]-ATP by HotSpot assay relative to control; assay type: protein-complex assay
# CDK3/Cyclin E (Homo sapiens), sequence (P24864 whole entry, looked up): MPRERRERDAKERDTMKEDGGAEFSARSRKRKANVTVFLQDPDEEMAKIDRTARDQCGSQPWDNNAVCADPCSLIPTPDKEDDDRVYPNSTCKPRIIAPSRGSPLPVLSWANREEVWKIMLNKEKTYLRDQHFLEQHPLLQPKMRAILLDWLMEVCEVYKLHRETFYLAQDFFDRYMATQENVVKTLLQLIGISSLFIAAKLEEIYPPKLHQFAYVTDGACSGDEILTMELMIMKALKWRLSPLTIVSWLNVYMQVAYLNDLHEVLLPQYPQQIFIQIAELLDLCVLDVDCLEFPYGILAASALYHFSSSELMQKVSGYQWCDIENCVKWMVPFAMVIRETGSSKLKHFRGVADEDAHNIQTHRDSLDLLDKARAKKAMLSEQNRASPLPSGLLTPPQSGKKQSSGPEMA
# CDK3/Cyclin E (Homo sapiens), sequence (Q00526 whole entry, looked up): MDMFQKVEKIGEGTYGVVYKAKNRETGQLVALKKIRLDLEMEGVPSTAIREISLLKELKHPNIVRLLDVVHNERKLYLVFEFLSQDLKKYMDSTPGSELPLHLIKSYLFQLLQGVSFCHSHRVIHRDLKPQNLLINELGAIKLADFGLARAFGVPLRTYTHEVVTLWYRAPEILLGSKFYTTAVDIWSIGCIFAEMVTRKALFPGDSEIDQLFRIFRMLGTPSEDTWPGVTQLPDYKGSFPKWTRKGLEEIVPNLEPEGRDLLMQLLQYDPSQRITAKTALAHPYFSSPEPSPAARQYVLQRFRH
# [3] = biological target: Serine/threonine-protein kinase WNK2 (Homo sapiens) (UniProt Q9Y3S1); assay: Inhibition of human WNK2 at 1 uM using MBP as substrate in presence of [gamma33P]-ATP by HotSpot assay relative to control
# [4] = system: NCI-H23; conditions: time 72 hrs
# [5] = system: Serine/threonine-protein kinase A-Raf (Homo sapiens), P10398 [Y301D,Y302D]; assay: Inhibition of human ARAF Y301D/Y302D double mutant at 1 uM using MEK1 as substrate in presence of [gamma33P]-ATP by HotSpot assay relative to control
# [6] = biological target: Fibroblast growth factor receptor 2 (Homo sapiens, UniProt P21802); assay: Inhibition of human FGFR2 using poly (Glu, Tyr)4:1 as substrate in presence of [gamma33P]-ATP by HotSpot assay
# Fibroblast growth factor receptor 2, sequence (P21802 whole entry): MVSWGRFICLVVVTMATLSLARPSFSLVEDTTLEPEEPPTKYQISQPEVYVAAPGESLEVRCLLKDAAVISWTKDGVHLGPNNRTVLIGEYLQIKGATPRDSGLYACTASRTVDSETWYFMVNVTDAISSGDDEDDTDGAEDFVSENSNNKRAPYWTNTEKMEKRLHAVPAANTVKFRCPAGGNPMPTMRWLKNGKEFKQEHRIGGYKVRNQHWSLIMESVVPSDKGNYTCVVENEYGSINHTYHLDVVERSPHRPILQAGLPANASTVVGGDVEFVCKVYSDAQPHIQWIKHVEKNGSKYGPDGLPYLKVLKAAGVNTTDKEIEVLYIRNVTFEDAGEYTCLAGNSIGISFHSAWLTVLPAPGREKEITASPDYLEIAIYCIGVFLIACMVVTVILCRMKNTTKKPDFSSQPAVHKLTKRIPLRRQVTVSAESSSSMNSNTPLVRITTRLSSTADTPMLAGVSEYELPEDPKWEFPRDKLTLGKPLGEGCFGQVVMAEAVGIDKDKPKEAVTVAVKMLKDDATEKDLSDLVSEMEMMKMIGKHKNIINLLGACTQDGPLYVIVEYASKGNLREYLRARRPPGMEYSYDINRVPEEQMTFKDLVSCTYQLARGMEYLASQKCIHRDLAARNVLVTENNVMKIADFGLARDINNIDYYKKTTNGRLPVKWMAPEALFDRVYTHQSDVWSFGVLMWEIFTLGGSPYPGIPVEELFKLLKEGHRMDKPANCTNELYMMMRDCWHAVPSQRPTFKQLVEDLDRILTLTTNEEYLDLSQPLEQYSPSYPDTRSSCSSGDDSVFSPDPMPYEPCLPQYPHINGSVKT
# [7] = biological target: Serine/threonine-protein kinase Nek1 (Homo sapiens) (UniProt Q96PY6); assay: Inhibition of human NEK1 at 1 uM using MBP as substrate in presence of [gamma33P]-ATP by HotSpot assay relative to control
# Serine/threonine-protein kinase Nek1 (Homo sapiens), sequence (Q96PY6 whole entry): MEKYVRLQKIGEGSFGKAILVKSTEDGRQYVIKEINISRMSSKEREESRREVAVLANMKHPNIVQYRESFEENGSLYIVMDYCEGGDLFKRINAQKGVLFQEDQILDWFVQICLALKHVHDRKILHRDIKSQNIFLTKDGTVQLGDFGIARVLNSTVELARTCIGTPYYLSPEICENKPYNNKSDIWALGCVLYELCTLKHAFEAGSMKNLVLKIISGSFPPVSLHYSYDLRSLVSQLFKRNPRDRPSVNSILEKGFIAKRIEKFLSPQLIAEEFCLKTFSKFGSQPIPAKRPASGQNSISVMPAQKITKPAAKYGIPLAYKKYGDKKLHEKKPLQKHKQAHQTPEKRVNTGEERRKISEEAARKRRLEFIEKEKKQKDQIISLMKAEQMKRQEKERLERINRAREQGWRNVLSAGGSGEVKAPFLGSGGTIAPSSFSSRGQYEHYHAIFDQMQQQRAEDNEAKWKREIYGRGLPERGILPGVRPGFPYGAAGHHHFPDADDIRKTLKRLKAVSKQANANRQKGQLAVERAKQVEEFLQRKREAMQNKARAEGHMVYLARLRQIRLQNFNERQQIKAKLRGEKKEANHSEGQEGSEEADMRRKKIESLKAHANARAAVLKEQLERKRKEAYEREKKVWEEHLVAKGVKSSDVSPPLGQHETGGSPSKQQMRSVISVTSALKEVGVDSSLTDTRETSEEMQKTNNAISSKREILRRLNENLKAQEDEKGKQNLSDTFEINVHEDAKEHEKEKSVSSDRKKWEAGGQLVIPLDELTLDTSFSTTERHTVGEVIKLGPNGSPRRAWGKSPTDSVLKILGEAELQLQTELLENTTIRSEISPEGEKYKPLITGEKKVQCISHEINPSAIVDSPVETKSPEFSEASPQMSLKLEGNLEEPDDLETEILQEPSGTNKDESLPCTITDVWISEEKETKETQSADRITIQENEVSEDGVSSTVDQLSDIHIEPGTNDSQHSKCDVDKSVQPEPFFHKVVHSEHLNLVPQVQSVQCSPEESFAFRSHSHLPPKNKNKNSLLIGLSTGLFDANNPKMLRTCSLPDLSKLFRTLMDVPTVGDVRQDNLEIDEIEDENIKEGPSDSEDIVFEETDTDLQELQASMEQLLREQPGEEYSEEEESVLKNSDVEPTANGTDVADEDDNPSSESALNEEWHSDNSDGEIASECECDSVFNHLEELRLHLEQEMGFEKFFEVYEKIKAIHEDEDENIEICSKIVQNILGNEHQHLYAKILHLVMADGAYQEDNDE
# [8] = system: KARPAS-299; assay: Antitumor activity against ALK positive human KARPAS-299 cells xenografted in SCID beige mouse assessed as tumor growth inhibition at 25 mg/kg, po administered once daily for 14 days relative to control; assay type: functional; conditions: time 14 day
# [9] = system: EML4-ALK (Homo sapiens), Q9UM73+Q9HC35 [L1152R]; conditions: BaF3, time 3-5 weeks
# [10] = system: Epidermal growth factor receptor (Homo sapiens), P00533 [UNDEFINED MUTATION]; conditions: BaF3, time 72.0 hrs
# [11] = biological target: RAF proto-oncogene serine/threonine-protein kinase (Homo sapiens) (UniProt P04049); assay: Inhibition of human RAF1 at 1 uM using MEK1 as substrate in presence of [gamma33P]-ATP by HotSpot assay relative to control
# [12] = biological target: Serine/threonine-protein kinase D1 (Homo sapiens, UniProt Q15139); assay: Inhibition of human PRKD1 using KKLNRTLSVA as substrate in presence of [gamma33P]-ATP by HotSpot assay
# [13] = system: Mus musculus; assay: In vivo inhibition of ALK signaling in SCID Beige mouse xenografted with ALK positive human KARPAS-299 cells assessed as reduction in phosphorylated STAT3 level at 10 to 50 mg/kg, po administered as single dose and measured at 6 to 24 hrs by immunoblot analysis; assay type: functional, organism-based; conditions: dose 10-50 mg/kg, time 6-24 hrs
# [14] = biological target: Homeodomain-interacting protein kinase 3 (Homo sapiens) (UniProt Q9H422); assay: Inhibition of human HIPK3 at 1 uM using MBP as substrate in presence of [gamma33P]-ATP by HotSpot assay relative to control
# [15] = biological target: Receptor tyrosine-protein kinase erbB-4 (Homo sapiens, UniProt Q15303); assay: Inhibition of human ERBB4 using poly (Glu, Tyr)4:1 as substrate in presence of [gamma33P]-ATP by HotSpot assay
# [16] = system: EML4-ALK (Homo sapiens), Q9UM73+Q9HC35 [F1174L]; conditions: BaF3, dose 500.0 nmol/L, time 3-5 weeks
# [17] = biological target: Tyrosine-protein kinase FRK (Homo sapiens, UniProt P42685); assay: Inhibition of human FRK using RLGRDKYKTLRQIRQ as substrate in presence of [gamma33P]-ATP by HotSpot assay
# [18] = biological target: Mitogen-activated protein kinase 1 (Homo sapiens) (UniProt P28482); assay: Inhibition of human MAPK1 at 1 uM using MBP as substrate in presence of [gamma33P]-ATP by HotSpot assay relative to control
# [19] = biological target: Serine/threonine-protein kinase 3 (Homo sapiens) (UniProt Q13188); assay: Inhibition of human STK3 at 1 uM using MBP as substrate in presence of [gamma33P]-ATP by HotSpot assay relative to control
# [20] = biological target: Glycogen synthase kinase-3 beta (Homo sapiens) (UniProt P49841); assay: Inhibition of human GSK3beta at 1 uM using YRRAAVPPSPSLSRHSSPHQ(pS)EDEEE as substrate in presence of [gamma33P]-ATP by HotSpot assay relative to control
# Glycogen synthase kinase-3 beta (Homo sapiens), sequence (P49841 whole entry, looked up): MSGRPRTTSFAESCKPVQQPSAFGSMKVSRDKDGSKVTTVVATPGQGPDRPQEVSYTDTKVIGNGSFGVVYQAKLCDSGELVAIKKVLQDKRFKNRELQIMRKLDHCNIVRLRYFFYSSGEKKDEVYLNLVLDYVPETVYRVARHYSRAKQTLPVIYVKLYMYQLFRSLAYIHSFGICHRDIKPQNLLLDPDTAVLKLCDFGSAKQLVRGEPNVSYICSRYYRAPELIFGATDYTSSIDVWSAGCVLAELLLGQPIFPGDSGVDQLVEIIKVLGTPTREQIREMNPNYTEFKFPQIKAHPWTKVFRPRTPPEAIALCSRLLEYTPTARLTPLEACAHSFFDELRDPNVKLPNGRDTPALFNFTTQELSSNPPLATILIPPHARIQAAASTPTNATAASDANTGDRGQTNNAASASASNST
# [21] = biological target: CDK7/Cyclin H/MNAT1 (Homo sapiens) (UniProt P51946+P50613+P51948); assay: Inhibition of human CDK7/CyclinH/MAT1 at 1 uM using MBP as substrate in presence of [gamma33P]-ATP by HotSpot assay relative to control; assay type: protein-complex assay
# [22] = biological target: MAP kinase-interacting serine/threonine-protein kinase 2 (Homo sapiens) (UniProt Q9HBH9); assay: Inhibition of human MNK2 at 1 uM using MBP as substrate in presence of [gamma33P]-ATP by HotSpot assay relative to control
# [23] = biological target: Leucine-rich repeat serine/threonine-protein kinase 2 (Homo sapiens, UniProt Q5S007); assay: Inhibition of human LRRK2 using RLGRDKYKTLRQIRQ as substrate in presence of [gamma33P]-ATP by HotSpot assay
# [24] = biological target: Tyrosine-protein kinase Lyn (Homo sapiens, UniProt P07948); assay: Inhibition of human LYN using poly (Glu, Tyr)4:1 as substrate in presence of [gamma33P]-ATP by HotSpot assay
# Tyrosine-protein kinase Lyn, sequence (P07948 whole entry): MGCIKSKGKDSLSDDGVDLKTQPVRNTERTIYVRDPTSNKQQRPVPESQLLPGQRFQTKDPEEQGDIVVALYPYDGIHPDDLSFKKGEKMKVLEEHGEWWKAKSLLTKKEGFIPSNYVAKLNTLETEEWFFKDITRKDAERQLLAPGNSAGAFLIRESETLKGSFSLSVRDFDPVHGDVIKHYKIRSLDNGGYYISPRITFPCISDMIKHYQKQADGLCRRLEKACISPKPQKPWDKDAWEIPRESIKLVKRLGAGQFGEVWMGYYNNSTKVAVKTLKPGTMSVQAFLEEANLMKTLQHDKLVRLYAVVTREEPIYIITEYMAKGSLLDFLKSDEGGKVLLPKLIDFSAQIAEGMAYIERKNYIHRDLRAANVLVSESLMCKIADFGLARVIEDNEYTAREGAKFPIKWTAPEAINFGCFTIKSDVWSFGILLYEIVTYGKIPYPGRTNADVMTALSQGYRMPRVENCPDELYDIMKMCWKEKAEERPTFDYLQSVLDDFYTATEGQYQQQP
# [25] = biological target: Serine/threonine-protein kinase Nek4 (Homo sapiens) (UniProt P51957); assay: Inhibition of human NEK4 at 1 uM using MBP as substrate in presence of [gamma33P]-ATP by HotSpot assay relative to control
# [26] = system: EML4-ALK (Homo sapiens), Q9UM73+Q9HC35 [S1206Y]; conditions: BaF3, time 3-5 weeks
# [27] = biological target: Tyrosine-protein kinase Fer (Homo sapiens, UniProt P16591); assay: Inhibition of human FER using poly (Glu, Tyr)4:1 as substrate in presence of [gamma33P]-ATP by HotSpot assay
# [28] = biological target: Macrophage-stimulating protein receptor (Homo sapiens) (UniProt Q04912); assay: Inhibition of human MST1R at 1 uM using KKSRGDYMTMQIG as substrate in presence of [gamma33P]-ATP by HotSpot assay relative to control
# [29] = biological target: Ephrin type-A receptor 7 (Homo sapiens, UniProt Q15375); assay: Inhibition of human EPHA7 using poly (Glu, Tyr)4:1 as substrate in presence of [gamma33P]-ATP by HotSpot assay
# Ephrin type-A receptor 7, sequence (Q15375 whole entry): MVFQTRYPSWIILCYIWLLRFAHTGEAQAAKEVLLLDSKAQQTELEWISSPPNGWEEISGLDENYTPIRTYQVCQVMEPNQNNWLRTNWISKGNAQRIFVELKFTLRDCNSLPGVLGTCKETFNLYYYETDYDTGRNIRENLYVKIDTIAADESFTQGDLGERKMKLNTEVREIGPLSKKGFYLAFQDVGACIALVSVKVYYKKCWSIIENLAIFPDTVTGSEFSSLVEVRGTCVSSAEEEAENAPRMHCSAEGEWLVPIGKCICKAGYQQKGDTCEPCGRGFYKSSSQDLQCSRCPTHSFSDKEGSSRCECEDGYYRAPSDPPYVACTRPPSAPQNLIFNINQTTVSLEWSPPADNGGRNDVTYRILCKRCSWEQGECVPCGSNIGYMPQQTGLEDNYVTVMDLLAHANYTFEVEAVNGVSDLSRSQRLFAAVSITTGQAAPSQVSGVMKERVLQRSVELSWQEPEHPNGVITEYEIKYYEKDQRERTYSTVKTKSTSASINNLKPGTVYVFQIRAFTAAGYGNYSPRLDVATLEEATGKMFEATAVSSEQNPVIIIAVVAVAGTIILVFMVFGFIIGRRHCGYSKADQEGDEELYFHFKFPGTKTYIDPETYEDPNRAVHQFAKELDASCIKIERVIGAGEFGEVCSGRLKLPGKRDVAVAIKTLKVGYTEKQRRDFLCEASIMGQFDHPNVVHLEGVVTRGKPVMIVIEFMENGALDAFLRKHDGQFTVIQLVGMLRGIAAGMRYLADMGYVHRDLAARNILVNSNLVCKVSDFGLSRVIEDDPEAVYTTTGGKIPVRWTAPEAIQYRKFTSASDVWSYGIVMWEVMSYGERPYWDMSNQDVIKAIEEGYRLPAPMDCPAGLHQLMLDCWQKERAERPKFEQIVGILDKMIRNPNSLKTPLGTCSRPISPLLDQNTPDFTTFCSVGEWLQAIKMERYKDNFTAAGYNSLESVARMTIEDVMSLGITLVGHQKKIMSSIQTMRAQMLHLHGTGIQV
smiles,measurement,setting,value
COc1cc(N2CCC(N3CCN(C)CC3)CC2)ccc1Nc1ncc(Cl)c(Nc2ccccc2P(C)(C)=O)n1 [BRIGATINIB],inhibition,[1],< 90%
same,inhibition,[2],< 90%
same,inhibition,[3],< 90%
same,GI50,[4],1340 nM
same,inhibition,[5],< 90%
same,IC50,[6],228 nM
same,inhibition,[7],< 90%
same,TGI,[8],87%
same,IC90,[9],34 nM
same,IC90,[10],2460 nM
same,inhibition,[11],< 90%
same,IC50,[12],197 nM
same,Activity,[13],Active
same,inhibition,[14],< 90%
same,IC50,[15],27 nM
same,inhibition,[16],Active
same,IC50,[17],52 nM
same,inhibition,[18],< 90%
same,inhibition,[19],< 90%
same,inhibition,[20],< 90%
same,inhibition,[21],< 90%
same,inhibition,[22],< 90%
same,IC50,[23],51 nM
same,IC50,[24],241 nM
same,inhibition,[25],< 90%
same,IC90,[26],109 nM
same,IC50,[27],1.3 nM
same,inhibition,[28],< 90%
same,IC50,[29],> 1000 nM
